Patent US20100119599A1 (ARCHER PHARMACEUTICALS, INC., priority 2006, published 2010)

Legend:
Aβ1-42 = assay: Measurement of Aβ1-42 in culture medium of 7W WT APP751 CHO cells by ELISA; format: cell-based, Chinese hamster; conditions: for activity at 5 µM: Cricetulus griseus, Table 1, 5 μM test compound, CHO cells stably transfected with human APP751, culture medium, ELISA, control DMSO, 0 = no detectable amount, read-out: Aβ1-42 (% of control); for Aβ1-42 (% of control): CHO cells that overexpress APP751, zero = below the detection limit of the assay
Aβ1-40 = assay: Measurement of Aβ1-40 in culture medium of 7W WT APP751 CHO cells by ELISA; format: cell-based, Chinese hamster; conditions: for activity at 5 µM: Cricetulus griseus, Table 1, 5 μM test compound, CHO cells stably transfected with human APP751, culture medium, ELISA, control DMSO, 0 = no detectable amount; for Aβ1-40 (% of control): CHO cells that overexpress APP751, zero = below the detection limit of the assay
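Further: 5 µM test compound but RI-coded compounds at 10 µM for 24 hours.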

| SMILES | activity at 5 µM (Aβ1-42) | activity at 5 µM (Aβ1-40) | Aβ1-42 (% of control) (Aβ1-42) | Aβ1-40 (% of control) (Aβ1-40) |
| --- | --- | --- | --- | --- |
| CCCCCOC(=O)C1=C(C)NC2=C(C(=O)CC(C)(C)C2)C1c1ccccc1Br (stereo not shown) [ST216079, pentyl 4-(2-bromophenyl)-2,7,7-trimethyl-5-oxo-1,4,6,7,8-pentahydroquinoline-3-carboxylate] | 20.5% | 25.8% |  |  |
| N#CC1=C(N)NC(S)=C(C#N)C1c1cccc(Br)c1 (stereo not shown) [ST014065, 6-amino-4-(3-bromophenyl)-2-sulfanyl-1,4-dihydropyridine-3,5-dicarbonitrile] |  |  | 30.01 % of control | 18.6 % of control |
| CC1=C(C(=O)OCCOc2ccccc2)C(c2ccc(Br)cc2)C2=C(CCCC2=O)N1 (stereo not shown) [ST014890, 2-phenoxyethyl 4-(4-bromophenyl)-2-methyl-5-oxo-1,4,6,7,8-pentahydroquinoline-3-carboxylate] | 67.5% | 13.2% |  |  |
| CC1=C(C(=O)Nc2ccc(Cl)cc2)C(c2ccsc2)C(C#N)=C(SCC(=O)Nc2ccc(C)c(Cl)c2)N1 (stereo not shown) [RI_37] |  |  | 75.8 % of control | 64.4 % of control |
| CC1(C)CC(=O)C2=C(C1)N(c1ccc(Br)cc1)C(N)=C(C#N)C2c1ccc(C(C)(C)C)s1 (stereo not shown) [ST052026, 2-amino-4-[5-(tert-butyl)(2-thienyl)]-1-(4-bromophenyl)-7,7-dimethyl-5-oxo-1,4,6,7,8-pentahydroquinoline-3-carbonitrile] | 25.3% | 13.5% |  |  |
| CCN(CC)c1ccc(C2C(C(=O)OCc3ccccc3)=C(C)NC3=C2C(=O)CC(C)(C)C3)cc1 (stereo not shown) [ST013049, phenylmethyl 4-[4-(diethylamino)phenyl]-2,7,7-trimethyl-5-oxo-1,4,6,7,8-pentahydroquinoline-3-carboxylate] | 94.1% | 27.8% |  |  |
| CC1=C(C(=O)Nc2ccccc2)C(c2cccs2)C(C#N)=C(SCC(=O)NCc2ccccc2)N1 (stereo not shown) [RI_22] |  |  | 47.6 % of control | 60.9 % of control |
| COC(=O)C1=C(C)NC2=C(C(=O)CC(c3ccc(OC)cc3)C2)C1c1cccc(OC)c1OC (stereo not shown) [ST016999, methyl 4-(2,3-dimethoxyphenyl)-7-(4-methoxyphenyl)-2-methyl-5-oxo-1,4,6,7,8-pentahydroquinoline-3-carboxylate] | 82.8% | 67.3% |  |  |
| CCCOC(=O)C1=C(C)NC2=C(C(=O)CC(c3ccccc3)C2)C1c1ccc(Cl)cc1Cl (stereo not shown) [ST017293, propyl 4-(2,4-dichlorophenyl)-2-methyl-5-oxo-7-phenyl-1,4,6,7,8-pentahydroquinoline-3-carboxylate] | 95.2% | 57.7% |  |  |
| CC1=C(C(=O)Nc2ccccc2)C(c2cccs2)C(C#N)=C(SCC(=O)Nc2ccc(C)cc2)N1 (stereo not shown) [RI_50] |  |  | 38.2 % of control | 55.2 % of control |
| CCOC(=O)C1=CN(c2cc(C)ccc2C)C=C(C(=O)OCC)C1c1cc(OC)c(OC)cc1OC [ST052474, ethyl 1-(2,5-dimethylphenyl)-5-(ethoxycarbonyl)-4-(2,4,5-trimethoxyphenyl)-1,4-dihydropyridine-3-carboxylate] |  |  | 3.498 % of control | 5.404 % of control |
| CC1=C(C(=O)OCCc2ccccc2)C(c2ccc([N+](=O)[O-])cc2)C2=C(CC(c3ccccc3)CC2=O)N1 (stereo not shown) [ST015255, 2-phenylethyl 2-methyl-4-(4-nitrophenyl)-5-oxo-7-phenyl-1,4,6,7,8-pentahydroquinoline-3-carboxylate] | 74.7% | 40.5% |  |  |
| CC(=O)C1=C(C)NC(SCC(=O)Nc2c(C)cc(Br)cc2Br)=C(C#N)C1c1cc(C)cs1 (stereo not shown) [ST048506, 2-[5-acetyl-3-cyano-6-methyl-4-(4-methyl(2-thienyl))(2-1,4-dihydropyridylthio)]-N-(2,4-dibromo-6-methylphenyl)acetamide] |  |  | 65.58 % of control | 91.16 % of control |
| CC1=C(C(=O)Nc2ccccc2)C(c2cccs2)C(C#N)=C(SCC(=O)Nc2ccc(Br)cc2)N1 (stereo not shown) [RI_71] |  |  | 25.1 % of control | 34.5 % of control |
